Consider 9 compounds from ChEMBL document CHEMBL1139994, “Discovery of novel dialkyl substituted thiophene inhibitors of HCV by in silico screening of the NS5B RdRp” (Bioorg Med Chem Lett, 2007).

pEC50, pIC50: −log10 of the molar value.

Assay [1] has as its system Hepatitis C virus. Kind of assay: Inhibition of HCV replicase complex in cell-free assay. The following applies: Hepacivirus hominis.
Assay [2] is described as follows: Ratio of CC50 for Huh7 cells to EC50 for HCV. Format: functional, Huh-7.
The target of assay [3] is Hepatitis C virus. The experiment in a line: Antiviral activity against HCV by replicon assay. A general note: A replicon is a self-replicating genome or part of one, used to study replication in cells.

One may read the pIC50 as the IC50 on a negative log10 scale, so that one unit is a factor of ten. With `Cc1sc(NC(=O)CCc2ccccc2)c(C(N)=O)c1C`, the pIC50 with Hepatitis C virus [1] was under 4.00.
The same measure, in the same setting: then `NC(=O)c1c(NC(=O)CCc2ccccc2)sc2c1CCCC2`, with under 4.00.
Usually pEC50 stands for −log10 of the EC50, conventionally taken in molar units. A lower pEC50 goes with a high EC50. As to `CCC1CCc2c(sc(NC(=O)CCc3ccccc3)c2C(N)=O)C1` (stereo not given), in assay [2], the “Ratio CC50/EC50” value stood at 3. The pIC50 with Hepatitis C virus [1] is 4.52. Further, on Hepatitis C virus [3], the pEC50 is 5.71.
In the assay with Hepatitis C virus [1], `CCc1c(C)sc(NC(=O)CCc2ccccc2)c1C(=O)O` showed a pIC50 of under 4.00.
For the compound `CCc1c(C)sc(NC(=O)CCc2ccccc2)c1C#N`, in assay [2], the “Ratio CC50/EC50” value is 3. The same compound gave a pIC50 with Hepatitis C virus [1] of 4.60. This compound also showed a pEC50 on Hepatitis C virus [3] of 5.78.
`CC1CCc2c(sc(NC(=O)CCc3ccccc3)c2C(N)=O)C1` (stereo not given) had a pIC50 with Hepatitis C virus [1] of under 4.00.
On to `CCC1CCc2c(sc(NC(=O)CCc3ccccc3)c2C#N)C1` (stereo not given), for which, in the assay on Hepatitis C virus [1], the pIC50 was under 4.00.
Regarding `CCOC(=O)c1c(NC(=O)CCc2ccccc2)sc(C)c1CC`, the pIC50 with Hepatitis C virus [1] is under 4.00.
In the case of `CCc1c(C)sc(NC(=O)CCc2ccccc2)c1C(N)=O`, the “Ratio CC50/EC50” value in assay [2] came out at 3. For the same compound, in the assay with Hepatitis C virus [1], the pIC50 was 4.30. This compound also showed a pEC50 on Hepatitis C virus [3] of 6.04.
